Series [1] concerns PC-3 (human prostate cancer). Put plainly: XTT cell growth assay, PC-3. In kind it is cell-based. As to conditions: PC-3 cells; 5 to 25 μM; 24 and 48 hours incubation. As for the experimental part:
(§1) The tumors cell lines used in this study included PC-3 (human prostate cancer), WM-266-4 cell (human metastatic melanoma), MDA-MB 231 (human breast cancer) and A172 (glioblastoma). […] The benign fibroblasts were tolerable to this conjugate, accentuating its potential as anticancer candidate. At the end of the culture period, cell growth was estimated by XTT assay. After 4 hours incubation of the cells with the XTT reagent, optical density (OD) of the reduced XTT product was then measured at 480 and 680 nm. Percentage of growth inhibition by a test compound was calculated by comparison of the treated culture versus a control culture (free of any compound). The result shown for each concentration point represents the mean+/−standard error calculated from 3 different experiments. In each experiment the compounds were tested in triplicates.
(In general: Formazan colour is commonly taken as a measure of viable cells.)

Series [2] has as its system WM-266-4 cell (human metastatic melanoma). Put plainly: XTT cell growth assay, WM-266-4. Format: cell-based. The conditions noted are these: WM-266-4 cells; 5 to 25 μM; 24 and 48 hours incubation. The procedure:
as §1

The test system of series [3] is MDA-MB 231 (human breast cancer). Put plainly: XTT cell growth assay, MDA-MB 231. Format: cell-based. The conditions noted are these: MDA-MB 231 cells; 5 to 25 μM; 24 hours incubation (FIGS. 1E, 1F). As for the experimental part:
as §1

In the next series the test system is A172 (glioblastoma). Put plainly: XTT cell growth assay, A172. In kind it is cell-based. As to conditions: A172 cells; 5 to 25 μM. The procedure:
as §1

Another series has as its system benign fibroblasts. Put plainly: In vitro cytotoxicity on benign fibroblasts. Format: cell-based. The procedure:
as §1

Series [4] relates to primary fibroblast (FB) cells. The series can be described thus: Annexin V-FITC/PI flow cytometry detection of apoptotic/necrotic stages, fibroblasts. Format: cell-based. The conditions noted are these: 10 μM, compared to cancer cells. As for the experimental part:
Detection of apoptotic/necrotic stages of tumor cells was examined by Annexin V-FITC/PI apoptosis detection kit (MEBCYTO). Viable cells are negative for staining of either Annexin V or PI. Early apoptotic stage indicated with positive Annexin V and negative PI, whereas late-apoptotic and necrotic stages characterized by high PI signal.
FIGS. 3A-C present flow cytometry analysis of fibroblast cells treated with 10 μM of chimera 358 for 2 hours (FIG. 3A), 4 hours (FIG. 3B) and 8 hours (FIG. 3C), showing detection of apoptotic/necrotic stages of the cells.

The subject of series [5] is WM-266.4 human melanoma xenograft. The series can be described thus: Experiment 1: human melanoma model mice, daily IP injection for 7 days. In kind it is in vivo. The procedure:
(§2) In one experiment (Experiment 1), 14 human melanoma model mice (immune-deficient xenograft) were treated daily for 7 days by IP injection with of Chimera 358 followed by 2 days of observation according to the following groups: 4 control mice treated with saline, 5 mice treated with 25 mg and 5 mice treated with 10 mg.

For series [6] the test system is unchanged. Put plainly: Experiment 2: human melanoma model mice, IP injection 3 times a week. In kind it is in vivo. The conditions noted are these: for WM-266.4 cell proliferation (tumor size) in vivo: IP 3 times a week. The procedure: (§3) In another experiment (Experiment 2), 13 human melanoma model mice were treated 3 times a week by IP injection with of Chimera 358 followed by 2 days of observation according to the following groups: 3 control mice received saline, 5 mice with 5 mg and 5 mice with 10 mg. The treatment was started two weeks after grafting, when tumor development has started.

A short description of series [7]: Body weight monitoring, Experiment 1. The conditions noted are these: 25 mg group; IP daily for 7 days. In kind it is in vivo, mice. As for the experimental part: as §2
FIG. 6 presents the results of the body weight monitoring of 14 mice that undergone the treatment described in Experiment 1.

Series [8] in a line: Body weight monitoring, Experiment 2. In kind it is in vivo, mice. The conditions noted are these: 5 mg group; IP 3 times a week. As for the experimental part: as §3
FIG. 7 presents the results of the body weight monitoring of 13 mice that undergone the treatment described in Experiment 2.

Structures are written as SMILES. “Also recorded” adds a separate entry of the source.

Turning to `CN(C)CCN1C(=O)c2cccc3cc(NC(=O)CCCc4ccc(N(CCCl)CCCl)cc4)cc(c23)C1=O` [Chimera 358, 4-(4-(bis(2-chloroethyl)amino)phenyl)-N-(2-(2-(dimethylamino)ethyl)-1,3-dioxo-2,3-dihydro-1H-benzo[de]isoquinolin-5-yl)butanamide], the “inhibition of cancer cell growth / cell viability (XTT)” value in [1], in series [2] and in series [3] was “remarkable inhibition of cancer cell growth; also recorded: notable cell toxicity” throughout. Also, the “inhibition of cancer cell growth (XTT)” value in the series on A172 (glioblastoma) was “remarkable inhibition of cancer cell growth”. For the same molecule, in the series on benign fibroblasts, the “effect on benign fibroblasts” value is recorded as “tolerable”. Moreover, the “cell death (apoptotic/necrotic stages)” value in [4] is “moderate”. Moreover, the survival result in series [5] (10 mg group (5 mice), IP daily for 7 days) is given as “one mouse”; in series [6] (10 mg group (5 mice), IP three times weekly), “one mouse”. Moreover, the “WM-266.4 cell proliferation (tumor size) in vivo” value in series [5] (10 mg group, after four weeks of the treatment) is “notable decrease in tumor size”; in [5] (mice receiving the treatment (25 mg, 10 mg) versus saline control) it was “grew to a much lesser extent”; in series [6] (5 mg group) it was “kept growing”; in series [6] (10 mg group), “grew to a much lesser extent”. Besides, the results for the body weight entry in series [7] and in series [8] were “loss of body weight” and “maintained their body weight”, respectively.
